# Earlier results in US20030211177A1, “Method and composition for treatment and prevention of alopecia” (priority 2003, published 2003).
# Test system: patients' hair (alopecia)
# Details: Propecia literature
compound,measurement,value
"CC(C)(C)NC(=O)[C@H]1CC[C@H]2[C@@H]3CC[C@H]4NC(=O)C=C[C@]4(C)[C@H]3CC[C@]12C [Propecia ®, finasteride]",Excellent Improvement (percent of subjects),0%
same,Moderate Improvement (percent of subjects),4%
same,No Improvement (percent of subjects),62%
same,Slight Improvement (percent of subjects),34%
